In one series the test system is ad libitum fed rat model. Nature of the series: Assay (I) efficacy testing on appetite, ad libitum fed rat model. To be noted: dosing 1 mg/kg. It is filed as in vivo. As for the experimental part: Assay (I)—Experimental protocol for efficacy testing on appetite with MC4 analogues, using an ad libitum fed rat model. TAC:SPRD @mol rats or Wistar rats from M&B Breeding and Research Centre A/S, Denmark are used for the experiments. The rats have a body weight 200-250 g at the start of experiment. The rats arrive at least 10-14 days before start of experiment with a body weight of 180-200 g. Each dose of compound is tested in a group of 8 rats. […] When the animals arrive they are housed individually in a reversed light/dark phase (lights off 7:30 am, lights on 7:30 pm), meaning that lights are off during daytime and on during nighttime. […] During this period the animals are handled at least 3 times. The experiment is conducted in the rats' home cages. Immediately before dosing the rats are randomised to the various treatment groups (n 8) by body weight. They are dosed according to body weight at between 7:00 am and 7:45 am, with a 1-3 mg/kg solution administered intraperitoneally (ip), orally (po) or subcutaneously (sc). The time of dosing is recorded for each group. After dosing, the rats are returned to their home cages, where they then have access to food and water. […] At the end of the experimental session, the animals are euthanised. The individual data are recorded in Microsoft excel sheets. Outliers are excluded after applying the Grubbs statistical evaluation test for outliers, and the result is presented graphically using the GraphPad Prism program.

In the next series the target is T1, human MC4 receptor (Homo sapiens, UniProt P32245).
T1 construct: expressed in transfected cells
T1 sequence (P32245 whole entry): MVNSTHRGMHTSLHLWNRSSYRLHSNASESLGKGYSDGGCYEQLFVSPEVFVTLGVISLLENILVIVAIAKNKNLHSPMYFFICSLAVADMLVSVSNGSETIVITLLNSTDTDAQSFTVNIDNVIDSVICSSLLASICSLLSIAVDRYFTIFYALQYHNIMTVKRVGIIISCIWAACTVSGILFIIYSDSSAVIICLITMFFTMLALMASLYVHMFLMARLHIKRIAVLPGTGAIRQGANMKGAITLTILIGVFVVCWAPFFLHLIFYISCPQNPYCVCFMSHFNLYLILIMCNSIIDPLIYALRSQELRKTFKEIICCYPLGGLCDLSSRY
Nature of the series: Assay (V) Melanocortin Receptor 4 (MC4) binding assay. The settings on record: Assay (V) MC4 [Ki] (nM), 125NDP-α-MSH binding, BHK cell membranes. Put shortly: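 BHK membranes stably expressing human MC4 receptor were incubated with ^125NDP-α-MSH (≈79 pM final) and compound for 2 h at 25 °C, pH 7.0 HEPES buffer with HSA or ovalbumin. Filter-bound radioactivity was gamma counted. Binding curves were fitted by non-linear regression.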

Another series deals with T2, MC1 receptor (Homo sapiens, UniProt Q01726).
T2 construct: expressed in transfected cells
T2 sequence (Q01726 whole entry): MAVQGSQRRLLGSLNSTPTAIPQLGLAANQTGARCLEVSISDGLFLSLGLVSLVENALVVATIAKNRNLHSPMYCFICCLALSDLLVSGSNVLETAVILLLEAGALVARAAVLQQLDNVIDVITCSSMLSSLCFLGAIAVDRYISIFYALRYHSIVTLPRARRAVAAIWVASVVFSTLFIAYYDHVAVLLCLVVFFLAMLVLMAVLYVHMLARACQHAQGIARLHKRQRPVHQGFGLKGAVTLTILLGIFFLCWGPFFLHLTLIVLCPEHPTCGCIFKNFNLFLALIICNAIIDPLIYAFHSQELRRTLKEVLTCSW
The series is described as follows: Assay (IV) Melanocortin Receptor 1 (MC1) binding assay. Put shortly:
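Competition binding used BHK cell membranes stably expressing MC1 (25 μg/ml) with 22 pM final ^125NDP-α-MSH in 25 mM HEPES pH 7.4, CaCl2, MgSO4, EDTA, 0.1% HSA (or ovalbumin), 0.005% Tween 20. After 90 min at 30° C., bound radioligand was filtered and counted, with binding curves fitted by non-linear regression.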

Series [1] in a line: Solubility data of compounds in water over the pH range. The settings on record: read-out: Conc (solubility in water). It is filed as physicochemical.

Values after ≈ are worked out from the molar mass of the structure shown. Where two headings read alike, the source gives them in different places. Where a SMILES comes first, the peptide text is derived from it. Bridges are numbered along the chain shown (N, C = ends). [ ]: non-standard residue; d: D form. The star is where a group is joined. Palmitoyl(16-(5-tetrazolyl)) = O=C(CCCCCCCCCCCCCCCc1nnn[nH]1)*; Lys(CH2CO2H)2 = N[C@@H](CCCCN(CC(=O)O)CC(=O)O)C(=O)O; Hyp = O=C(O)[C@@H]1C[C@@H](O)CN1; Nle = CCCC[C@H](N)C(=O)O; AEEA = NCCOCCOCC(=O)O; βAla = NCCC(=O)O

Turning to `CCCC[C@H](NC(=O)[C@H](CCCCN(CC(=O)O)CC(=O)O)NC(=O)[C@H](CO)NC(=O)[C@H](CCC(N)=O)NC(=O)[C@H](CO)NC(=O)CNC(=O)COCCOCCNC(=O)CCCCCCCCCCCCCCCc1nnn[nH]1)C(=O)N[C@H]1CCC(=O)NCCCC[C@@H](C(N)=O)NC(=O)[C@H](Cc2c[nH]c3ccccc23)NC(=O)[C@H](CCCNC(=N)N)NC(=O)[C@@H](Cc2ccccc2)NC(=O)[C@@H]2C[C@@H](O)CN2C1=O` [Example 5, (2-{2-[16-(Tetrazol-5-yl)hexadecanoylamino]ethoxy}ethoxy)acetyl-Gly-Ser-Gln-Ser-Lys(biscarboxymethyl)-Nle-c[Glu-Hyp-D-Phe-Arg-Trp-Lys]-NH2] ({Palmitoyl(16-(5-tetrazolyl))-AEEA}-GSQS[Lys(CH2CO2H)2][Nle]E[Hyp][dF]RWK-NH2; lactam 7-12), the “Food consumption (% of vehicle) 24 h” value in the series with ad libitum fed rat model is 81 % of vehicle. For the same molecule, the “Food consumption (% of vehicle) 48 h” value in the series with ad libitum fed rat model is 91 % of vehicle. The Ki at human MC4 receptor was 7.55 nM; on MC1 receptor, over 10000 nM. Moreover, the solubility at 3 days in series [1] (pH 4.22, pH 4.22) was determined as 20 µM (≈ 40.5 µg/mL); in series [1] (pH 4.55, pH 4.55), 21 µM (≈ 42.6 µg/mL); in series [1] (pH 5.1, pH 5.10), 25 µM (≈ 50.7 µg/mL); in series [1] (pH 5.23, pH 5.23), 30 µM (≈ 60.8 µg/mL); in series [1] (pH 5.97, pH 5.97), 129 µM (≈ 262 µg/mL); in series [1] (pH 6.29, pH 6.29), 239 µM (≈ 485 µg/mL). Besides, the solubility at 3 days in series [1] (pH 6.68, pH 6.68) came to 244 µM (≈ 495 µg/mL); in series [1] (pH 7.03, pH 7.03) it was 245 µM (≈ 497 µg/mL); in series [1] (pH 7.04, pH 7.04) it was 251 µM (≈ 509 µg/mL).

On to `CCCC[C@H](NC(=O)[C@H](CCCCN(CC(=O)O)CC(=O)O)NC(=O)CCNC(=O)[C@H](Cc1c[nH]cn1)NC(=O)[C@H](CCC(N)=O)NC(=O)[C@H](CO)NC(=O)[C@H](CO)NC(=O)[C@H](CCC(N)=O)NC(=O)[C@@H](CO)NC(=O)CNC(=O)COCCOCCNC(=O)COCCOCCNC(=O)CCCCCCCCCCCCCCCc1nnn[nH]1)C(=O)N[C@H]1CCC(=O)NCCCC[C@@H](C(N)=O)NC(=O)[C@H](Cc2c[nH]c3ccccc23)NC(=O)[C@H](CCCNC(=N)N)NC(=O)[C@@H](Cc2ccccc2)NC(=O)[C@@H]2C[C@@H](O)CN2C1=O` [Example 20, (2-{2-[2-(2-{2-[16-(Tetrazol-5-yl)hexadecanoylamino]ethoxy}ethoxy)acetylamino]ethoxy}ethoxy)acetyl-Gly-D-Ser-Gln-Ser-Ser-Gln-His-β-Ala-Lys(biscarboxymethyl)-Nle-c[Glu-Hyp-D-Phe-Arg-Trp-Lys]-NH2] ({Palmitoyl(16-(5-tetrazolyl))-AEEA-AEEA}-G[dS]QSSQH[βAla][Lys(CH2CO2H)2][Nle]E[Hyp][dF]RWK-NH2; lactam 11-16), for which, in the series with ad libitum fed rat model (1 mg/kg), the “Food consumption (% of vehicle) 24 h” value is 61 % of vehicle. Further, the “Food consumption (% of vehicle) 48 h” value in the series with ad libitum fed rat model (1 mg/kg) was 72 % of vehicle. The results for the Ki on human MC4 receptor and on MC1 receptor were 4.55 nM and over 10000 nM, respectively. In addition, the solubility at 3 days in series [1] (pH 2.94, pH 2.94) is 499 µM (≈ 1300 µg/mL); in series [1] (pH 4.37, pH 4.37), 512 µM (≈ 1330 µg/mL); in series [1] (pH 4.97, pH 4.97), 406 µM (≈ 1050 µg/mL); in series [1] (pH 5.4, pH 5.40), 67 µM (≈ 174 µg/mL); in series [1] (pH 5.51, pH 5.51), 56 µM (≈ 145 µg/mL); in series [1] (pH 6.23, pH 6.23), 53 µM (≈ 138 µg/mL). Moreover, the solubility at 3 days in series [1] (pH 6.91, pH 6.91) was 223 µM (≈ 579 µg/mL); in series [1] (pH 6.99), 345 µM (≈ 896 µg/mL); in series [1] (pH 7.23, pH 7.23), 473 µM (≈ 1230 µg/mL); in series [1] (pH 7.55, pH 7.55) it was 452 µM (≈ 1170 µg/mL).

Usually Ki stands for a measure of affinity in units of concentration, obtained from inhibition or displacement. As a reminder, the solubility is the dissolved amount per volume that the medium holds.
